From US20240400547A1, “2,6-PIPERIDINEDIONE COMPOUND AND APPLICATION THEREOF” (MEDSHINE DISCOVERY INC., priority 2021, published 2024)
Counter-ions that a name gives are not always drawn.

Key:
[1] = test system: human B-cell lymphoma OCI-LY10 cells; test: In vivo efficacy in SCID mouse xenograft model of human B-cell lymphoma OCI-LY10 cells; parameters: species or system SCID mice; conditions: for Tumor volume (Day 0): Day 0 (grouping, baseline); for Tumor volume (Day 0) / Tumor volume (Day 28): average, SEM in next grid line
Description: The study evaluates the antitumor effect of the test compounds using a SID mouse xenograft model of human B-cell lymphoma OCI-LY10 cells.
• 1. Experimental animals: SCID mice, female, 6 to 8 weeks old, weighing 17 to 20 g. Beijing Vital River Laboratory Animal Technology Co., Ltd. • 2. Cell line: The human B-cell lymphoma OCI-LY10 cell line was purchased from Nanjing Cobioer Biosciences Co. Ltd (Cat. No CBP60558).
OCI-LY10 cells were cultured in IMDM medium containing 20% FBS and maintained in a 37° C. incubator with 5% CO2 and saturated humidity. Log phase OCI-LY10 cells were collected, resuspended in IMDM basic medium, and mixed 1:1 with Matrigel. The cell concentration was adjusted to 4×10^7/mL. Under sterile conditions, 0.1 mL of the cell suspension was inoculated subcutaneously into the right flank of SCID mice, with an inoculation concentration of 4×10^6/0.1 mL/mouse.
For the pharmacological experiment, once the tumors reached a certain size, animals with tumors that were either too large, too small, or irregularly shaped were eliminated. Animals with tumor volumes between 167.65 and 231.29 mm^3 were selected. Based on tumor volume, the animals were divided into groups using a random grouping method, with each group consisting of six mice, and the average tumor volume was approximately 201.15 mm^3. The day of grouping was designated as Day 0, and dosing began according to the body weight of the animals. The pharmacological study period lasted for 28 days, with dosing once a day and a 24-hour interval between doses. Intragastric administration was used for administration. During the experiment, the body weight and tumor size of the animals were measured twice a week. Clinical symptoms were observed and recorded daily.
The test compounds were administered at doses of 10 mg/kg, 30 mg/kg, and 100 mg/kg, with a solvent composition of 10% DMSO/10% Solutol/80% H2O. The formula for calculating tumor volume (TV) was: 1/2×a×b^2, where a and b were the measured length and width of the tumor, respectively. The formula for calculating the Tumor Growth Inhibition (TGI) rate was: TGI (%)=[(1−(average tumor volume at the end of administration in a treatment group−average tumor volume at the beginning of administration in this treatment group))/(average tumor volume at the end of treatment in the vehicle control group−average tumor volume at the beginning of treatment in the vehicle control group)]×100%. Relative Tumor Proliferation rate T/C (%): the calculation formula was as follows: T/C %=TRTV/CRTV×100% (TRTV: average RTV of the treatment group; CRTV: average RTV of the negative control group). According to the results of tumor measurement, the relative tumor volume (RTV) was calculated, and the calculation formula was RTV=Vt/V0, where V0 was the tumor volume measured at the time of group administration (i.e. Day 0), VT was the tumor volume at a certain measurement, and TRTV and CRTV were taken from the same day's data.
In this study, experimental data were presented in Mean±SEM.
Statistical analysis was performed using IBM SPSS Statistics software based on the RTV data at the end of the experiment. For comparisons between two groups, a T test was used. For comparisons among three or more groups, one-way ANOVA was utilized. If the variance was homogenous (no significant difference in F value), Tukey's method was applied for analysis. If the variance was heterogeneous (significant difference in F value), the Games-Howell method was used for testing. A p-value of […] was considered statistically significant.

IKZF3 = target: T1, IKZF3 (Homo sapiens, UniProt Q96SW2+Q9UKT9); test: In Cell Western of IKZF3 protein expression level in MM.1S cells; assay type: cell-based; conditions: IKZF3, MM.1S cells, 24 hours
T1 construct: host or cells: MM.1S cells
Description: Experimental objective: The experiment aims to assess the degradation effect of the test compounds on IKZF1 and 1KZF3 proteins in MM.1S cells by evaluating the impact of the test compounds on the expression levels of IKZF1 and IZKZF3 proteins in MM.1S cells.
• Cell lines: MMN.1 S cell (sourced from ATCC; Cat. No CRL-2974) • Negative control: 0.100 DMSO.
• 1) Log phase MM.1 S cells were plated in a 96-well plate at 1.2×10^5 cells per well and cultured overnight; • 2) The next day, compounds were added with a starting concentration of 300 nM, diluted threefold across three replicate wells for 10 concentration gradients (including DMSO), and the cells were incubated for 24 hours in an incubator; • 3) The cells were centrifuged, and the supernatant was carefully removed. 150 μL of 4% paraformaldehyde fixative was added along the wall of the wells, avoiding contact with the bottom cells, and the cells were incubated at room temperature for 20 minutes; • 4) Lysis buffer was prepared by mixing 0.5 mL of 10% Triton X-100 with 49.5 mL of PBS until homogenous; • 5) 200 μL of lysis buffer was added along the well walls, again avoiding the bottom cells, and incubated on a shaker at room temperature for 5 minutes; • 6) The wells were washed four times; • 7) 150 μL of Licor […] […]

[2] = 10 mg/kg intragastric once a day
[3] = 30 mg/kg intragastric once a day
[4] = 100 mg/kg intragastric once a day

T1 sequence (Q9UKT9 whole entry): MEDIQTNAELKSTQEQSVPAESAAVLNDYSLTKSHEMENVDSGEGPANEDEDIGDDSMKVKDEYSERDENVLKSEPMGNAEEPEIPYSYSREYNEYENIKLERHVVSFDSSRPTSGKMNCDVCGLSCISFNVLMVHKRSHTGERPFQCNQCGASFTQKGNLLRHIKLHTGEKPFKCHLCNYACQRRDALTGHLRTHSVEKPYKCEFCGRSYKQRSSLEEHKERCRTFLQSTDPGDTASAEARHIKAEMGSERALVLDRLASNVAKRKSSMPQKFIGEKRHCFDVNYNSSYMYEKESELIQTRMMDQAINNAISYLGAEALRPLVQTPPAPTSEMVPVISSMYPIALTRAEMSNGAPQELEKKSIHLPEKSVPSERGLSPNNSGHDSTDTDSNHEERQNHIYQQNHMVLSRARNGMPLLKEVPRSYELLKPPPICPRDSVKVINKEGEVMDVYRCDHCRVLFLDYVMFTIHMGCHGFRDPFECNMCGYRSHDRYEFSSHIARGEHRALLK
T1 sequence (Q96SW2 whole entry): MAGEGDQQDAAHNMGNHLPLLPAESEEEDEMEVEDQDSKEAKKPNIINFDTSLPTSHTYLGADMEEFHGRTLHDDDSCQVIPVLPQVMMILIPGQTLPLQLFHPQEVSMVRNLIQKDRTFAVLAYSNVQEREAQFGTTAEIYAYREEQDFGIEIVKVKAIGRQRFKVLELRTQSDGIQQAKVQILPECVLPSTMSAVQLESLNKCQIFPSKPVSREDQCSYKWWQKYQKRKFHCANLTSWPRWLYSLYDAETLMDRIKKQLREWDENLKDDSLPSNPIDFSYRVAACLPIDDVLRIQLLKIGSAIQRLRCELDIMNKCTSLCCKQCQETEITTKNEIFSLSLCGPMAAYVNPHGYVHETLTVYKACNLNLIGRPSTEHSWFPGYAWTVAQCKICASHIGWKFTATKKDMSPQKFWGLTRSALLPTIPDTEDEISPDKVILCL
T1 sequence (Q16531 whole entry partner): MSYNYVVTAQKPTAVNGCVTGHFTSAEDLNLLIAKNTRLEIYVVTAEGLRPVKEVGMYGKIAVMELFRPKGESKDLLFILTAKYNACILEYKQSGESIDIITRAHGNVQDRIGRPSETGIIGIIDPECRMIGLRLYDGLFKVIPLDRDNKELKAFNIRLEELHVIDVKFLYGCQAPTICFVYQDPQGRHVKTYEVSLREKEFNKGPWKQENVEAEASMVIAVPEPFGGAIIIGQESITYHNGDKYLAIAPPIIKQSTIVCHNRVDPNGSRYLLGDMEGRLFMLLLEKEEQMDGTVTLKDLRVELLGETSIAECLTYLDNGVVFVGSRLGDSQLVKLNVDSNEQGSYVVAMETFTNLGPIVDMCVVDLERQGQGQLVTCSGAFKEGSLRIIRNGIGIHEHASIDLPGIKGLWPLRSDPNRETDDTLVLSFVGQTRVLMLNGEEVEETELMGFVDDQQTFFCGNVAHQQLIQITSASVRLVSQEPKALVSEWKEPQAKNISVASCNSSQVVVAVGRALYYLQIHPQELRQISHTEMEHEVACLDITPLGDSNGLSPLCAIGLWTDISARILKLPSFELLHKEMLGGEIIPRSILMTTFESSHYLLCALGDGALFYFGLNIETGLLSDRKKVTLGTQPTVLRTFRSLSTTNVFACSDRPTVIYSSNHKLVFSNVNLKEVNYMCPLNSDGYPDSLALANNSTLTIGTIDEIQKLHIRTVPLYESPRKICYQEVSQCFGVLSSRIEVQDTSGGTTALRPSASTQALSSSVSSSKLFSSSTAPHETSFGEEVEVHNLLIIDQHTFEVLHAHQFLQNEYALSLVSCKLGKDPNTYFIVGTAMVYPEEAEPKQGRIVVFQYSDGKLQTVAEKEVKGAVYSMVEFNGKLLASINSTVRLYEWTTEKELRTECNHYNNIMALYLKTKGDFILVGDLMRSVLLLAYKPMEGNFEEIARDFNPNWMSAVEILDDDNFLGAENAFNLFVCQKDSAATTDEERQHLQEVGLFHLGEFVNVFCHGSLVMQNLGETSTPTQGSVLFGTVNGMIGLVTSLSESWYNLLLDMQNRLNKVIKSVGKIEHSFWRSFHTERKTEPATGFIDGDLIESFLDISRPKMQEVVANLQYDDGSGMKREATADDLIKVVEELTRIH

`O=C1CCC(c2noc3ccc4c(NC(=O)CN5CCN(C[C@H]6CC[C@H](n7cc(NC(=O)c8coc(-c9ccnc(NCC%10CC%10)c9)n8)c(C(F)F)n7)CC6)CC5)cccc4c23)C(=O)N1` (some centres unmarked) [Hydrochloride of WX014] was tested, and the “Tumor volume (Day 0)” value [1, 2] was 202.43 mm^3, the “T/C (%) (Day 28)” value [1, 2] was 47.40% and the “TGI (%) (Day 28)” value [1, 2] was 60.43%. The “Tumor volume (Day 28)” value [1, 2] was 685.61 mm^3, the “Tumor volume (Day 0)” value [1, 3] was 199.80 mm^3 and the “T/C (%) (Day 28)” value [1, 3] was 23.07%. For the same molecule, the “TGI (%) (Day 28)” value [1, 3] was 89.94%, the “Tumor volume (Day 28)” value [1, 3] was 322.68 mm^3 and the “Tumor volume (Day 0)” value [1, 4] was 199.75 mm^3. For the same molecule, the “T/C (%) (Day 28)” value [1, 4] was 12.80%, the “TGI (%) (Day 28)” value [1, 4] was 100.96% and the “Tumor volume (Day 28)” value [1, 4] was 188.01 mm^3.
`O=C1CCC(c2noc3ccc4c(NC(=O)C(F)(F)C5CCN(CC6CCC(n7cc(NC(=O)c8coc(-c9ccnc(NCC%10CC%10)c9)n8)c(C(F)F)n7)CC6)CC5)cccc4c23)C(=O)N1` (centres unmarked) [Hydrochloride of WX018] gave a DC50 (IKZF3) of 8.34 nM and a Dmax (IKZF3; MM1.S, read-out: Maximum degradation rate Dmax) of 96.5%.
